Drawing on patent publication US8614201B2 (Janssen Pharmaceutica NV, priority 2009, dated 2013), this text covers IC50 for 26 compounds.

Chain of Human TRPA1 (O75762 whole entry): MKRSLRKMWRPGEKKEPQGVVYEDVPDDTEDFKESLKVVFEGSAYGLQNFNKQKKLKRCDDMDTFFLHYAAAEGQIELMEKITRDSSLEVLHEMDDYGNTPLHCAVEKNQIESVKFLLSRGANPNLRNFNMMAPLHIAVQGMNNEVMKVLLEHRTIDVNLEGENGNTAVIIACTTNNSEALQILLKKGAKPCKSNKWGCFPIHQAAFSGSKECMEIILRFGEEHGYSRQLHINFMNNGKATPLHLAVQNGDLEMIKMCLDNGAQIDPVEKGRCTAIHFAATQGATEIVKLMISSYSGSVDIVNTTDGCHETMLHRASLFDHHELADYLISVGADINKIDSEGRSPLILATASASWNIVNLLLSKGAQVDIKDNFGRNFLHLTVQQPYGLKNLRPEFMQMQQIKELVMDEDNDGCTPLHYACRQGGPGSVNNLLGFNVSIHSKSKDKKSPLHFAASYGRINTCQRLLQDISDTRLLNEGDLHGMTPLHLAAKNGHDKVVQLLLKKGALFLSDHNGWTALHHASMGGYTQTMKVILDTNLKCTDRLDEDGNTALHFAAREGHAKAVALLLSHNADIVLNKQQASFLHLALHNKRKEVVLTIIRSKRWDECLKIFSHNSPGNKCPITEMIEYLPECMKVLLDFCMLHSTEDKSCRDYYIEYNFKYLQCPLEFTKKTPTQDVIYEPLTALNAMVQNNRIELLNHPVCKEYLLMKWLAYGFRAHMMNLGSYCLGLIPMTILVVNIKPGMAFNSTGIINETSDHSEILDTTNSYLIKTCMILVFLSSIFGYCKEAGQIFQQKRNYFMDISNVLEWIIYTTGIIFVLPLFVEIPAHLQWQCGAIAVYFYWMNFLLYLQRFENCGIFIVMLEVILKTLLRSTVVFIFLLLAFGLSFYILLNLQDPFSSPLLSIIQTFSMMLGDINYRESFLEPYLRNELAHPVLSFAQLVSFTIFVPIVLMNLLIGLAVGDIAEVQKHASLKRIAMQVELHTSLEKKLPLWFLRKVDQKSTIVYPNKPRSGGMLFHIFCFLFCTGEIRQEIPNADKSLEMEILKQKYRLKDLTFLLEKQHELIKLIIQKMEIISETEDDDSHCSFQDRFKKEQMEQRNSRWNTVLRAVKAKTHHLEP

This assay has as its target Human TRPA1 (Homo sapiens, UniProt O75762). The assay is described as follows: Assay 1: In vitro cellular testing of TRPA1 modulation (CHO-TREx, Fluo-3 calcium fluorescence, AITC agonist). Format: cell-based. Also on record: expressed in transfected cells; host or cells: CHO-TREx cells (Invitrogen), vector pcDNA4/TO. As to conditions: CHO-TREx cells expressing human TRPA1; Fluo-3 fluorescence (FLIPR/Tetra); agonist 15 μM allyl isothiocyanate (AITC); 30 minute antagonist incubation. The method, boiled down: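 Antagonist potency is the 50% reduction of the AITC (15 μM) calcium response, Hill-fitted against no-antagonist and 10 μM ruthenium red controls. Fluo-3-loaded (4 μM) CHO-TREx cells with tetracycline-inducible human TRPA1 got compound in HEPES saline pH 7.4 for 30 min, usually from 10 μM in three-fold dilutions.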
By IC50 is commonly meant the concentration needed to halve the response being measured. Turning to `CC(C)CN1CCN(c2cc(CNC(=O)[C@@H]3CCCN3S(=O)(=O)c3ccc(F)cc3)cc(-c3ccc(C(F)(F)F)cc3)n2)CC1` [Example 370, 1-[(4-Fluorophenyl)sulfonyl]-N-({2-[4-(2-methylpropyl)piperazin-1-yl]-6-[4-(trifluoromethyl)phenyl]pyridin-4-yl}methyl)-L-prolinamide], the IC50 came out at 115 nM.
On to `O=C(NCc1cc(-c2ccc(C(F)(F)F)cc2)ncn1)[C@@H]1CC(F)(F)CN1S(=O)(=O)c1ccc(F)cc1` [Example 179, (2S)-4,4-Difluoro-1-(4-fluoro-benzenesulfonyl)-pyrrolidine-2-carboxylic acid [6-(4-trifluoromethyl-phenyl)-pyrimidin-4-ylmethyl]-amide], for which the IC50 amounted to 229 nM.
As for `C[C@@H](Nc1nc(CNC(=O)[C@@H]2CCCN2S(=O)(=O)c2ccc(Cl)s2)cc(-c2ccc(C(F)(F)F)cc2)n1)c1ccccn1` [Example 37, 1-(5-Chloro-thiophene-2-sulfonyl)-pyrrolidine-2S-carboxylic acid [2-(1-pyridin-2-yl-ethylamino)-6-(4-trifluoromethyl-phenyl)-pyrimidin-4R-ylmethyl]-amide], the IC50 was 7 nM.
For the compound `O=C(NCc1cc(-c2ccc(C(F)(F)F)cc2)nc(N2CCN(Cc3ccccc3)CC2)c1)[C@@H]1CC(F)(F)CN1S(=O)(=O)c1ccc(F)cc1` [Example 388, N-({2-(4-Benzylpiperazin-1-yl)-6-[4-(trifluoromethyl)phenyl]pyridin-4-yl}methyl)-4,4-difluoro-1-[(4-fluorophenyl)sulfonyl]-L-prolinamide], the IC50 stood at 3520 nM.
For `CC(Nc1cc(CNC(=O)[C@@H]2CCCN2S(=O)(=O)c2ccc(Cl)s2)cc(-c2ccc(C(F)(F)F)cc2)n1)c1ccncc1` (stereo partly drawn) [Example 403, 1-[(5-Chlorothiophen-2-yl)sulfonyl]-N-({2-[(1-pyridin-4-ylethyl)amino]-6-[4-(trifluoromethyl)phenyl]pyridin-4-yl}methyl)-L-prolinamide], the IC50 worked out at 466 nM.
As for `CNc1cc(CNC(=O)[C@@H]2CCCN2S(=O)(=O)c2ccc(F)cc2)cc(-c2ccc(C(F)(F)F)cc2)n1` [Example 337, 1-[(4-Fluorophenyl)sulfonyl]-N-({2-(methylamino)-6-[4-(trifluoromethyl)phenyl]pyridin-4-yl}methyl)-L-prolinamide], the figure is 1010 nM; as for `CC(C)CN1CCN(c2cc(CNC(=O)[C@@H]3C=CCN3S(=O)(=O)c3ccc(F)cc3)cc(-c3ccc(C(F)(F)F)cc3)n2)CC1` [Example 390, (2S)-1-[(4-Fluorophenyl)sulfonyl]-N-({2-[4-(2-methylpropyl)piperazin-1-yl]-6-[4-(trifluoromethyl)phenyl]pyridin-4-yl}methyl)-2,5-dihydro-1H-pyrrole-2-carboxamide], 382 nM; as for `O=C(NCc1cc(NCc2ccncc2)nc(-c2ccc(C(F)(F)F)cc2)c1)[C@@H]1CCCN1S(=O)(=O)c1ccc(Cl)s1` [Example 364, 1-[(5-Chlorothiophen-2-yl)sulfonyl]-N-({2-[(pyridin-4-ylmethyl)amino]-6-[4-(trifluoromethyl)phenyl]pyridin-4-yl}methyl)-L-prolinamide], 2730 nM.
Turning to `O=C(NCc1cccc(-c2ccc(Cl)cc2)c1)[C@@H]1CCCN1S(=O)(=O)c1ccc(F)cc1` [Example 171, 1-(4-Fluorobenzenesulfonyl)-pyrrolidine-2S-carboxylic acid (4′-chlorobiphenyl-3-ylmethyl)-amide], the IC50 amounted to 19 nM.
On to `O=C(NCc1cc(NCc2cccnc2)nc(-c2ccc(C(F)(F)F)cc2)c1)[C@@H]1CCCN1S(=O)(=O)c1ccc(Cl)s1` [Example 371, 1-[(5-Chlorothiophen-2-yl)sulfonyl]-N-({2-[(pyridin-3-ylmethyl)amino]-6-[4-(trifluoromethyl)phenyl]pyridin-4-yl}methyl)-L-prolinamide], for which the IC50 was determined as 2060 nM.
As for `O=C(NCc1cccc(-c2ccc(C(F)(F)F)cc2)c1)[C@@H]1C[C@H](O)CN1S(=O)(=O)c1ccc(F)cc1` [Example 121, (2S,4S)-1-(4-Fluoro-benzenesulfonyl)-4-hydroxy-pyrrolidine-2-carboxylic acid (4′-trifluoromethyl-biphenyl-3-ylmethyl)-amide], the figure is 1530 nM.
As for `O=C(NCc1cc(-c2ccc(C(F)(F)F)cc2)nc(-c2cccc(C(F)(F)F)c2)n1)[C@@H]1CCCN1S(=O)(=O)c1ccc(F)cc1` [Example 5, 1-(4-Fluoro-benzenesulfonyl)-pyrrolidine-2S-carboxylic acid [2-(3-trifluoromethyl-phenyl)-6-(4-trifluoromethyl-phenyl)-pyrimidin-4-ylmethyl]-amide], the figure is 9 nM.
As for `Cc1ccc(-c2cccc(CNC(=O)[C@@H]3CCCN3S(=O)(=O)c3ccc(F)cc3)c2)cc1` [Example 79, 1-(4-Fluoro-benzenesulfonyl)-pyrrolidine-2S-carboxylic acid (4′-methyl-biphenyl-3-ylmethyl)-amide], the figure is 137 nM; as for `CC(C)CN1CCN(c2cc(CNC(=O)[C@@H]3C=CCN3S(=O)(=O)c3ccc(Cl)s3)cc(-c3ccc(C(F)(F)F)cc3)n2)CC1` [Example 389, (2S)-1-[(5-Chlorothiophen-2-yl)sulfonyl]-N-({2-[4-(2-methylpropyl)piperazin-1-yl]-6-[4-(trifluoromethyl)phenyl]pyridin-4-yl}methyl)-2,5-dihydro-1H-pyrrole-2-carboxamide], 95 nM; as for `O=C(NCc1cccc(-c2ccccc2OC(F)(F)F)c1)[C@@H]1CCCN1S(=O)(=O)c1ccc(F)cc1` [Example 70, 1-(4-Fluorobenzenesulfonyl)-pyrrolidine-2S-carboxylic acid (2′-trifluoromethoxybiphenyl-3-ylmethyl)-amide], 746 nM.
Regarding `O=C(NCc1cccc(-c2ccc(OC(F)(F)F)cc2)c1)[C@@H]1CCCN1S(=O)(=O)c1ccc(F)cc1` [Example 68, 1-(4-Fluorobenzenesulfonyl)-pyrrolidine-2S-carboxylic acid (4′-trifluoromethoxybiphenyl-3-ylmethyl)-amide], the IC50 came out at 26 nM.
Take `O=C(NCc1cccc(-c2cccc(OC(F)(F)F)c2)c1)[C@@H]1CCCN1S(=O)(=O)c1ccc(F)cc1` [Example 69, 1-(4-Fluorobenzenesulfonyl)-pyrrolidine-2S-carboxylic acid (3′-trifluoromethoxybiphenyl-3-ylmethyl)-amide]: the IC50 worked out at 181 nM.
As for `CC(=O)c1ccc(-c2cccc(CNC(=O)[C@@H]3CCCN3S(=O)(=O)c3ccc(F)cc3)c2)cc1` [Example 89, 1-(4-Fluorobenzenesulfonyl)-pyrrolidine-2S-carboxylic acid (4′-acetylbiphenyl-3-ylmethyl)-amide], the figure is 844 nM; as for `O=C(NCc1cc(-c2ccc(C(F)(F)F)cc2)nc(N2CCN(c3ccccc3F)CC2)c1)[C@@H]1CCCN1S(=O)(=O)c1ccc(Cl)s1` [Example 324, 1-[(5-Chlorothiophen-2-yl)sulfonyl]-N-({2-[4-(2-fluorophenyl)piperazin-1-yl]-6-[4-(trifluoromethyl)phenyl]pyridin-4-yl}methyl)-L-prolinamide], 412 nM; as for `CC(C)CN1CCN(c2cc(CNC(=O)[C@@H]3CC(F)(F)CN3S(=O)(=O)c3ccc(F)cc3)cc(-c3ccc(C(F)(F)F)cc3)n2)CC1` [Example 386, 4,4-Difluoro-1-[(4-fluorophenyl)sulfonyl]-N-({2-[4-(2-methylpropyl)piperazin-1-yl]-6-[4-(trifluoromethyl)phenyl]pyridin-4-yl}methyl)-L-prolinamide], 311 nM.
With `CCC(CC)N1CCN(c2nc(CNC(=O)[C@@H]3CCCN3S(=O)(=O)c3ccc(F)cc3)cc(-c3ccc(C(F)(F)F)cc3)n2)CC1` [Example 13, 1-(4-Fluoro-benzenesulfonyl)-pyrrolidine-2S-carboxylic acid [2-[4-(1-ethyl-propyl)-piperazin-1-yl]-6-(4-trifluoromethyl-phenyl)-pyrimidin-4-ylmethyl]-amide], the IC50 came out at 90 nM.
As for `CC1CCCN1c1cc(CNC(=O)[C@@H]2C=CCN2S(=O)(=O)c2ccc(Cl)s2)cc(-c2ccc(C(F)(F)F)cc2)n1` (stereo partly drawn) [Example 417, (2S)-1-[(5-Chlorothiophen-2-yl)sulfonyl]-N-({2-(2-methylpyrrolidin-1-yl)-6-[4-(trifluoromethyl)phenyl]pyridin-4-yl}methyl)-2,5-dihydro-1H-pyrrole-2-carboxamide], the figure is 82 nM; as for `CC(C)(NC(=O)[C@@H]1CCCN1S(=O)(=O)c1ccc(Cl)s1)c1cccc(-c2ccc(C(F)(F)F)cc2)c1` [Example 118, (2S)-1-(5-Chloro-thiophene-2-sulfonyl)-pyrrolidine-2-carboxylic acid [1-methyl-1-(4′-trifluoromethyl-biphenyl-3-yl)ethyl]-amide], 5770 nM.
As for `Cn1ccc2ccc(-c3cccc(CNC(=O)[C@@H]4CCCN4S(=O)(=O)c4ccc(F)cc4)c3)cc21` [Example 108, 1-(4-Fluorobenzenesulfonyl)-pyrrolidine-2S-carboxylic acid 3-(1-methyl-1H-indol-6-yl)-benzylamide], the figure is 2530 nM; as for `O=C(NCc1cc(NCc2ccccc2)nc(-c2ccc(C(F)(F)F)cc2)c1)[C@@H]1CC(F)(F)CN1S(=O)(=O)c1ccc(F)cc1` [Example 394, N-({2-(Benzylamino)-6-[4-(trifluoromethyl)phenyl]pyridin-4-yl}methyl)-4,4-difluoro-1-[(4-fluorophenyl)sulfonyl]-L-prolinamide], 598 nM; as for `O=C(NCc1ccnc(-c2ccc(C(F)(F)F)cc2)c1)[C@@H]1C=CCN1S(=O)(=O)c1ccc(Cl)s1` [Example 128, 1-(5-Chlorothiophene-2-sulfonyl)-2,5-dihydro-1H-pyrrole-2S-carboxylic acid [2-(4-trifluoromethylphenyl)-pyridin-4-ylmethyl]-amide], 49 nM.
